{"source": "patent US10391084B2", "about": "“Methods and compositions to treat cancer” (CHILDREN'S HOSPITAL MEDICAL CENTER, priority 2013, dated 2019)", "key": {"[1]": {"test_system": "midkine promoter coupled to a luciferase reporter gene", "assay": "Midkine promoter-luciferase reporter screen in stably transfected HEK293 cells, dose-response", "assay_type": "cell-based", "conditions": "for pEC50: Homo sapiens, HEK293 reporter cells, midkine expression upregulated with retinoic acid", "procedure": "A library of compounds was screened for activity to reduce expression of midkine in vitro. HEK293 cells were stably transfected with the pGL4 vector comprising a midkine promoter coupled to a luciferase reporter gene. […] Changes in luciferase production were measured to access the inhibitory activity of the test compounds. The primary screen included 44,000 test compounds. Test compounds that reduced cell viability by more than 50% were eliminated from the screen. From the primary screen, 351 test compounds were further examined. From the secondary screen, 78 test compounds were examined using a dose-response assay, and the EC50 for the test compounds was determined.\nIn order to find a therapeutic compound that inhibits MDK expression, a MDK reporter cell line by stably transfecting HEK293 cells with a MDK promoter-fused luciferase construct was developed. This modified cell line was used to screen 44,000 compounds at the Drug Discovery Center at the University of Cincinnati. See Example 1. Detection of luciferase activity was used to identify MDK inhibitors."}, "H441 cells [2]": {"test_system": "H441 cells", "assay": "Hoechst staining for apoptotic morphology in H441 cells", "assay_type": "cell-based, human", "conditions": "H441, Hoechst 33342, 48 hours after treatment", "procedure": "Hoechst staining: the morphologic characteristics of apoptosis were evaluated using Hoechst 33342 dye (Molecular Probes, Eugene, Oreg.), which stains DNA. Cells were incubated with 1 μg/ml Hoechst dye and then visualized under a fluorescence microscope (IX81, Olympus Medical Systems Corp., Tokyo, Japan) (Ogawa N, et al., Int. J. Cancer. 1997; 73:367-70)."}, "[3]": {"assay": "Systemic toxicity in mice (body weight, serum AST and ALT)", "assay_type": "in vivo, BALB/c nude mice", "procedure": "(§1) Mouse experiments: human lung cancer xenografts were established in 6-wk-old female BALB/c nude mice (Charles River Laboratories Japan, Kanagawa, Japan) by subcutaneous (s.c.) inoculation of H441 cells (1×10^6/50 μl) mixed with Matrigel® (BD Pharmingen, San Diego, Calif.; 50 μl) into the dorsal flank (Watanabe N, et al., Clin. Cancer Res. 2008; 14:4631-9). The mice were randomly assigned into three groups (n=8 per group) 14 days after tumor inoculations. One group of mice was intraperitonially injected with 100 μl solution containing iMDK (9 mg/kg) three days per week (on days 1, 3, 5, 8, 10) and another group of mice was injected five days per week (on days 1, 2, 3, 4, 5, 8, 9, 10). DMSO was injected into the control group. Tumors were measured two to three times a week, and tumor volume was calculated as a×b^2×0.5, where a and b were large and small diameters, respectively. On day 10, all mice were sacrificed after body weight was measured and tumors were removed and prepared for histology. For analysis of serum AST and ALT, blood was drawn from the heart 48 hours after intraperitonially injected with 100 μl solution containing iMDK (9 mg/kg). DMSO was injected into the control group and four mice were used for each group."}, "[4]": {"test_system": "HEK293 embryonic kidney cells", "assay": "Cell viability assay, trypan blue exclusion, HEK293", "assay_type": "cell-based", "conditions": "HEK293, 0 to 500 nM, 48 hours after treatment", "procedure": "Cell viability assay: H441 cells, A549 cells, H520 cells, HEK293 cells and NHLF were plated in 24-well plates at a density of 1×10^5 cells and cultured at 37° C. for 24 hours. Medium was removed by aspiration and replaced with fresh culture medium containing iMDK dissolved in DMSO (10, 50, 100, 500 nmol/L). DMSO alone was used as the control. Cells were treated for 48 hours and collected by trypsinization. Viable cells were assessed by trypan blue exclusion. Recombinant MDK was purchased from R&D Systems (Minneapolis, Minn.) and reconstituted in water for block experiments. For MDK block experiments, H441 cells were cultured in Dulbecco's modified Eagle medium supplemented with 1% heat-inactivated fetal bovine overnight and recombinant MDK (25 nM) or/and iMDK (25 nM) was added for an additional 48 hours."}, "H441 cells [5]": {"test_system": "H441 cells", "assay": "Flow cytometric analysis for apoptosis (sub-G0/G1 DNA content), H441", "assay_type": "cell-based, human", "conditions": "72 hours, DMSO control 1.24%", "procedure": "(§2) Flow cytometric analysis for apoptosis: cells were plated in 24-well plates at a density of 0.5×10^5 cells per well 1 day before the treatments. After 72 hours, cells were harvested and washed once with PBS. Cells were resuspended in PBS containing 0.2% Triton X-100 and 1 mg/ml RNase for 5 min at room temperature and then stained with propidium iodide at 50 μg/ml to determine sub-G0/G1 DNA content using a FACScan. Doublets, cell debris, and fixation artifacts were gated out, and sub-G0/G1 DNA content was determined using Cell Quest Ver. 3.3 software."}, "AKT": {"test_system": "AKT", "assay": "Immunoblot of AKT phosphorylation in H441 cells", "assay_type": "cell-based, human", "conditions": "H441, dose- and time-dependent", "procedure": "(§3) Immunoblot analysis: cells were lysed in ice-cold lysis buffer [1% Triton X-100, 20 mM Tris-HCl (pH 8.0), 137 mM NaCl, 10% glycerol (v/v), 2 mM EDTA, 1 mM sodium orthovanadate (v/v), 1 mM phenylmethylsulfonyl fluoride]. Cell lysates were clarified by centrifugation (10 min at 15,000×g at 4° C.) and protein concentration determined using the BCA protein assay (Thermo Fisher Scientific, Rockford, Ill.). Equal amounts of protein were separated on an SDS-PAGE gel. The gel was electrophoretically transferred to a Hybond PVDF transfer membrane (Amersham, Arlington Heights, Ill.) and incubated with primary and secondary antibodies according to the Supersignal® West Pico chemiluminescence protocol (Pierce, Rockford, Ill.). Antibody specific for β-actin antibody was obtained from Sigma (St. Louis, Mo.) and antibody specific for human MDK was obtained from Abcam (Cambridge, UK). Antibody specific for caspase-3, PI3 kinase p85, phosphorylated-PI3K p85 (Tyr458)/p55 (Tyr199), AKT, phosphorylated-AKT (Ser473), Bad, XIAP, survivin were obtained from Cell Signaling Technology (Beverly, Mass.). Antibody specific for VEGF was purchased from Santa Cruz Biotechnology (Santa Cruz, Calif.). Secondary horseradish peroxidase-conjugated antibodies were obtained from Jackson Immunoresearch Laboratories (West Grove, Pa.). […]"}, "caspase-3": {"test_system": "caspase-3", "assay": "Immunoblot of caspase-3 cleavage in H441 cells", "assay_type": "cell-based, human", "conditions": "H441, even at the lowest concentrations (5 nM), 48 hours after treatment", "procedure": "as §3"}, "XIAP": {"test_system": "XIAP", "assay": "Immunoblot of XIAP in H441 cells", "assay_type": "cell-based, human", "conditions": "H441, dose- and time-dependent", "procedure": "as §3"}, "PI3K": {"test_system": "PI3K", "assay": "Immunoblot of PI3K phosphorylation in H441 cells", "assay_type": "cell-based, human", "conditions": "H441, dose- and time-dependent", "procedure": "as §3"}, "NHLF cells": {"test_system": "NHLF cells", "assay": "Flow cytometric analysis for apoptosis (sub-G0/G1 DNA content), NHLF", "assay_type": "cell-based, human", "conditions": "DMSO control 0.32%", "procedure": "as §2"}, "[6]": {"test_system": "H441 lung adenocarcinoma cells", "assay": "Cell viability assay, trypan blue exclusion, H441", "assay_type": "cell-based, human", "source_text": "(§4) Cell Lines and Culture Conditions: the human pulmonary adenocarcinoma cells H322, H358, H441 and A549 and the human lung squamous cell carcinoma cells H520 were obtained from the American Type Culture Collection (Manassas, Va.) and grown in RPMI 1640 (H322, H358, H520) or high glucose Dulbecco's modified Eagle medium (H441, A549 cells) supplemented with 10% heat-inactivated fetal bovine serum. The human malignant mesothelioma cells ACC-MESO-1 (MESO-1) obtained from JCRB Cell Bank (Osaka, Japan) and the human lung squamous cell carcinoma cells SQ5 were grown in RPMI 1640 supplemented with 10% heat-inactivated fetal bovine serum. The normal human lung fibroblasts (NHLF) obtained from Clonetics (San Diego, Calif.) were grown in high glucose Dulbecco's modified Eagle medium. All cell lines were cultured in 10% CO2 at 37° C.\nThe following day 100 pmol of Smart Pool MK siRNA or nontargeting siRNA (Dharmacon, Perbio Science, France) was transfected using 2 μl Lipofectamine 2000 (Invitrogen Life Technologies, Carlsbad, Calif.) according to the manufacturer's instructions. […]\nCell viability assay: H441 cells, A549 cells, H520 cells, HEK293 cells and NHLF were plated in 24-well plates at a density of 1×10^5 cells and cultured at 37° C. for 24 hours. […] Viable cells were assessed by trypan blue exclusion. […]"}, "[7]": {"test_system": "xenografts derived from H441 lung adenocarcinoma cells", "assay": "H441 lung adenocarcinoma xenograft in nude mice", "assay_type": "in vivo, BALB/c nude mice", "conditions": "9 mg/kg intraperitoneal", "procedure": "as §1\nFor immunohistochemistry, sections were sequentially deparaffinized through a series of xylene, graded ethanol, and water immersion steps. After being autoclaved in 0.2% citrate buffer for 15 minutes, sections were incubated with 3% hydrogen peroxide for 30 minutes to block endogenous peroxidase activity. A primary antibody specific for PI3 kinase p85, phosphorylated-PI3K p85 (Tyr458)/p55 (Tyr199) from Cell Signaling Technology and for MDK from Abcam were used. Specimens were incubated overnight at 4° C. with a 1:200 dilution of antibody followed by three washes with TBS. The slides were treated with streptoavidin-biotin complex (Envision System labeled polymer, horseradish peroxidase (HRP), Dako, Carpinteria, Calif.) for 60 minutes at a dilution of 1:100. […]"}, "survivin": {"test_system": "survivin", "assay": "Immunoblot of survivin in H441 cells", "assay_type": "cell-based, human", "conditions": "H441, dose- and time-dependent", "procedure": "as §3"}, "BAD": {"test_system": "BAD", "assay": "Immunoblot of BAD in H441 cells", "assay_type": "cell-based, human", "conditions": "H441, dose- and time-dependent", "procedure": "as §3"}, "[8]": {"test_system": "H520 lung squamous cell carcinoma cells", "assay": "Cell viability assay, trypan blue exclusion, H520", "assay_type": "cell-based, human", "conditions": "H520, 0 to 500 nM, 48 hours after treatment", "source_text": "as §4\nCell viability assay: H441 cells, A549 cells, H520 cells, HEK293 cells and NHLF were plated in 24-well plates at a density of 1×10^5 cells and cultured at 37° C. for 24 hours. Medium was removed by aspiration and replaced with fresh culture medium containing iMDK dissolved in DMSO (10, 50, 100, 500 nmol/L). DMSO alone was used as the control. Cells were treated for 48 hours and collected by trypsinization. Viable cells were assessed by trypan blue exclusion. […]"}, "[9]": {"conditions": "48 hours after 9 mg/kg intraperitoneal"}}, "note": "pEC50: −log10 of the molar value.", "data": [{"smiles": "O=c1oc2ccccc2cc1-c1cn2cc(Cc3cc(Cl)ccc3Cl)sc2n1", "note": "[Example compound 4]", "values": [{"measurement": "pEC50", "setting": "[1]", "result": 7.80}]}, {"smiles": "O=c1oc2ccccc2cc1-c1cn2cc(Cc3ccc(Cl)cc3)sc2n1", "note": "[Example compound 1]", "values": [{"measurement": "pEC50", "setting": "[1]", "result": 7.85}]}, {"smiles": "O=c1oc2ccccc2cc1-c1cn2cc(Cc3ccc(Br)cc3)sc2n1", "note": "[Example compound 3]", "values": [{"measurement": "pEC50", "setting": "[1]", "result": 7.92}]}, {"smiles": "O=c1oc2ccccc2cc1-c1cn2cc(Cc3ccc(F)cc3)sc2n1", "note": "[Example compound 2, 3-[2-(4-fluorobenzyl)imidazo[2,1-beta][1,3]thiazol-6-yl]-2H-chromen-2-one]", "values": [{"measurement": "nuclear fragmentation", "setting": "H441 cells [2]", "result": "induced nuclear fragmentation in a dose-dependent manner"}, {"measurement": "body weight", "setting": "[3]; 9 mg/kg intraperitoneal, day 10", "result": "did not influence"}, {"measurement": "serum level of ALT", "setting": "[3]; [9]", "result": "did not influence"}, {"measurement": "serum level of AST", "setting": "[3]; [9]", "result": "did not influence"}, {"measurement": "cell growth", "setting": "[4]", "result": "dose-dependently inhibited cell growth"}, {"measurement": "activity to reduce expression of midkine (in words)", "setting": "[1]; reporter screen, dose response", "result": "exceptional activity"}, {"measurement": "sub-G0/G1 DNA content", "setting": "H441 cells [5]; H441, 10 nM", "result": 37.00, "unit": "%"}, {"measurement": "sub-G0/G1 DNA content", "setting": "H441 cells [5]; H441, 25 nM", "result": 60.91, "unit": "%"}, {"measurement": "Phosphorylation of AKT", "setting": "AKT", "result": "suppressed"}, {"measurement": "cleaved forms of caspase-3", "setting": "caspase-3", "result": "induced"}, {"measurement": "XIAP expression", "setting": "XIAP", "result": "reduced"}, {"measurement": "Phosphorylation of PI3K", "setting": "PI3K", "result": "suppressed"}, {"measurement": "sub-G0G1 DNA content", "setting": "NHLF cells; 10 nM", "result": 0.52, "unit": "%"}, {"measurement": "sub-G0G1 DNA content", "setting": "NHLF cells; 25 nM", "result": 1.51, "unit": "%"}, {"measurement": "cell growth", "setting": "[6]; H441, 0 to 500 nM, 48 hours after treatment", "result": "dose-dependently inhibited cell growth"}, {"measurement": "suppression of cell growth with pretreatment of recombinant MDK", "setting": "[6]; H441, recombinant MDK 25 nM, iMDK 25 nM, 48 hours", "result": "partially blocked"}, {"measurement": "volume of the tumors versus control group", "setting": "[7]; 3 or 5 times a week", "result": "significantly lower"}, {"measurement": "lung tumor growth", "setting": "[7]; 3 or 5 times a week, from 14 days after inoculation", "result": "arrested"}, {"measurement": "Tunel staining, DNA fragmentation in tumors", "setting": "[7]; xenograft tumors", "result": "detected DNA fragmentation"}, {"measurement": "survivin expression", "setting": "survivin", "result": "reduced"}, {"measurement": "BAD expression", "setting": "BAD", "result": "induced"}, {"measurement": "cell growth", "setting": "[8]", "result": "dose-dependently inhibited cell growth"}]}]}
